The source of these data is US12157730B2, “Heteroaryl derivative, method for producing same, and pharmaceutical composition comprising same as effective component” (VORONOI INC., priority 2019, dated 2024).

In this test the target is T1, Ba/F3 cell EGFR Exon20 ins NPH (Homo sapiens, UniProt P00533, INS773NPH).
T1 construct: expressed in transfected cells; host or cells: Ba/F3
Description: Ba/F3 cell proliferation suppression, EGFR Exon20 ins NPH. The format is cell-based. As to conditions: GI50 class; Ba/F3 cell line with NPH inserted at Exon20 of EGFR; 72 hours. In a few lines:
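Seed 3000–5000 cells/well; after 24 h add compound (12 conc., 0.3 nM–50 um final); incubate 72 h; add CellTiter-Glo, 10 min room temperature; read luminescence; GI50 from % growth vs control, triplicate.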

Regarding `C#Cc1cccc([C@H]2CCON2c2cc(Nc3cc(NC(=O)C=C)c(N4CCN(C5CC5)CC4)cc3OC)ncn2)c1` [compound 654, N-(2-(4-cyclopropylpiperazine-1-yl)-5-((6-((R)-3-(3-ethynylphenyl)isoxazolidine-2-yl)pyrimidine-4-yl)amino)-4-methoxyphenyl) acrylamide], the “Ba/F3 (NPH) Activity” value is on record as “B (50 nM ≤ GI50 < 500 nM)”.
Turning to `C=CC(=O)Nc1cc(Nc2cc(N3OCC[C@@H]3c3ccc(F)c(F)c3)ncn2)c(OC)cc1N1CCC(N2C[C@@H]3C[C@H]2CO3)CC1` [compound 497, N-(2-(4-((1S,4S)-2-oxa-5-azabicyclo[2.2.1]heptane-5-yl)piperidine-1-yl)-5-((6-((R)-3-(3,4-difluorophenyl)isoxazolidine-2-yl)pyrimidine-4-yl)amino)-4-methoxyphenyl) acrylamide], the “Ba/F3 (NPH) Activity” value is “B (50 nM ≤ GI50 < 500 nM)”.
`C=CC(=O)Nc1cc(Nc2cc(N3OCC[C@H]3Cc3ccccc3)ncn2)c(OC)cc1N(C)CCN(C)C` [compound 973, N-(5-((6-((R)-3-benzylisoxazolidine-2-yl)pyrimidine-4-yl)amino)-2-((2-(dimethylamino)ethyl) (methyl)amino)-4-methoxyphenyl) acrylamide]: the “Ba/F3 (NPH) Activity” value is reported as “B (50 nM ≤ GI50 < 500 nM)”.
Regarding `C=CC(=O)Nc1cc(Nc2cc(N3OCC[C@@H]3c3cccc(C(F)(F)F)c3)ncn2)c(OC)cc1N1CC[C@@H](N2CCOCC2)C1` [compound 506, N-(4-methoxy-2-((R)-3-morpholinopyrolidine-1-yl)-5-((6-((R)-3-(3-(trifluoromethyl)phenyl)isoxazolidine-2-yl)pyrimidine-4-yl)amino)phenyl)acrylamide], the “Ba/F3 (NPH) Activity” value is recorded as “A (GI50 < 50 nM)”.
In the case of `C=CC(=O)Nc1cc(Nc2cc(N3OCC[C@@H]3Cc3cccc(Cl)c3Cl)ncn2)c(OC)cc1N1CCC(N2CCN(C3CC3)[C@@H](C)C2)CC1` [compound 981, N-(2-(4-((S)-4-cyclopropyl-3-methylpiperazine-1-yl)piperidine-1-yl)-5-((6-((S)-3-(2,3-dichlorobenzyl)isoxazolidine-2-yl)pyrimidine-4-yl)amino)-4-methoxyphenyl) acrylamide], the “Ba/F3 (NPH) Activity” value is on record as “A (GI50 < 50 nM)”.
With `C=CC(=O)Nc1cc(Nc2cc(N3OCC[C@@H]3c3cccc(Cl)c3C)ncn2)c(OC)cc1N1CCC(N2CCO[C@@H](C)C2)CC1` [compound 529, N-(5-((6-((R)-3-(3-chloro-2-methylphenyl)isoxazolidine-2-yl)pyrimidine-4-yl)amino)-4-methoxy-2-(4-((S)-2-methylmorpholino)piperidine-1-yl)phenyl) acrylamide], the “Ba/F3 (NPH) Activity” value is recorded as “A (GI50 < 50 nM)”.
Turning to `C=CC(=O)Nc1cc(Nc2cc(N3OCC[C@@H]3c3cccc(F)c3)ncn2)c(OC)cc1N(C)CCOC` [compound 838, N-(5-((6-((R)-3-(3-fluorophenyl)isoxazolidine-2-yl)pyrimidine-4-yl)amino)-4-methoxy-2-((2-methoxyethyl)(methyl)amino)phenyl) acrylamide], the “Ba/F3 (NPH) Activity” value was “A (GI50 < 50 nM)”.
On to `C=CC(=O)Nc1cc(Nc2cc(N3OCC[C@@H]3c3cccc(Cl)c3F)ncn2)c(OC)cc1N1CCC(N2CCN(C3CC3)[C@@H](C)C2)CC1` [Example 179, N-(5-((6-((R)-3-(3-chloro-2-fluorophenyl)isoxazolidine-2-yl)pyrimidine-4-yl)amino)-2-(4-((S)-4-cyclopropyl-3-methylpiperazine-1-yl)piperidine-1-yl)-4-methoxyphenyl) acrylamide], for which the “Ba/F3 (NPH) Activity” value is “A (GI50 < 50 nM)”.
Consider `C=CC(=O)Nc1cc(Nc2cc(N3OCC[C@@H]3c3cccc(Cl)c3Cl)ncn2)c(OC)cc1N1CCN(C2COC2)CC1` [compound 520, N-(5-((6-((R)-3-(2,3-dichlorophenyl)isoxazolidine-2-yl)pyrimidine-4-yl)amino)-4-methoxy-2-(4-(oxetane-3-yl)piperazine-1-yl)phenyl) acrylamide], for which the “Ba/F3 (NPH) Activity” value was “A (GI50 < 50 nM)”.
